US7968572B2, “Nitrogen-containing heterocyclic compound and pharmaceutical application thereof” (Ono Pharmaceuticals Co., Ltd., priority 2005, dated 2011)

How the values were obtained:
[1] = test system: Chinese hamster lung cells (CHL/IU); assay: Phospholipidosis detection system using a fluorescence labeling phospholipid analog (NBD-PE); assay type: cell-based; conditions: for Pospholipid accumulation increasing ratio (% of 30 uM amiodarone) (Dose of compound: 100 uM): about 24 hours with NBD-PE; for Judgment: phospholipidosis inducing activity, NBD-PE
Protocol: Study by a Phospholipidosis Detection System using a Fluorescence Labeling Phospholipid Analog Cell suspension (7×10^4 cells/ml) of Chinese hamster lung cells (CHL/IU) prepared using MEM (minimum essential medium) was added to a 96 well plate (96 well clear bottom plate) by 100 μL/necessary number of wells (2 wells for 1 dosage) and cultured for about 24 hours. After the culturing and subsequent removal of the supernatants on the 96 well plate, the compounds having respective concentrations prepared by dissolving or suspending in MEM medium containing 25 μmol/L of nitrobenzoxazole dipalmitoyl phosphatidyl ethanolamine (NBD-PE) (hereinafter abbreviated to NBD-PE medium) were added thereto by 100 μL/ well and treated for about 24 hours. Treating concentration of each compound was set to be 6.25, 12.5, 25, 50 or 100 μmol/L. […] In this connection, 5 wells of an untreated control (MEM medium alone) or an NBD-PE control (prepared by adding 1/100 volume of DMSO to the NBD-PE medium) were arranged for each compound and cultured in the same manner. After completion of the culturing and subsequent two times of washing with 100 μL/well of phosphate buffered saline (hereinafter abbreviated to PBS) (−), 100 μL of the MEM medium was added to all of the treated wells including two empty wells for the WST-1 background control and cultured for about 0.5 hour. Fluorescence intensity of each well was measured using a microplate reader (manufactured by Molecular Devices, SPECTRA max M2; excitation wavelength 485 nm/fluorescence wavelength 535 nm). Using average value of 2 wells for each dosage, the phospholipid increasing ratio (%) based on NBD-PE control was calculated using the following formula. Phospholipid accumulation increasing ratio (%)=100×(fluorescence intensity of substance to be tested−fluorescence intensity of untreated control)/(fluorescence intensity of NBD-PE control−fluorescence intensity of untreated control) (iii) Cytotoxicity Test The Pre value was calculated by measuring the 96 well plate which was measured in the measurement of phospholipid accumulation, using the microplate reader (manufactured by Molecular Devices, SPECTRA max M2) at a dominant wavelength of 450 nm and a correction wavelength of 690 nm. Premix WST-1 was added to the pre-measured 96 well plate by 5 μL/well. After 2 to 4 hours of culture, the Aft value was calculated by measuring in the same manner as in the Pre measurement. The background control value was subtracted from each of the measured values. Using the value obtained by subtracting the Pre value from the Aft value, the cell growth ratio (%) was calculated using the following formula.

[2] = molecular target: T1, recombinant human p38α MAP kinase (Homo sapiens, UniProt Q16539); assay: Study on p38α MAP kinase inhibitory activity (ATF2 phosphorylation, Alpha Screen); assay type: biochemical; conditions: biotinylated ATF2 substrate, 30° C. for 30 minutes
T1 construct: purchased Upstate Biotechnology #14-251
Protocol: Study on p38α MAP Kinase Inhibitory Activity
Using activating transcription factor-2 (hereinafter abbreviated to ATF2) which is a substrate for p38α MAP kinase, the inhibitory action of the compounds of the present invention was investigated on the phosphorylation by a recombinant human p38α MAP kinase.
A kinase buffer (25 mM Tris-HCl (pH 7.5), 5 mM β-glycerophosphate, 2 mM dithiothreitol, 0.1 mM Na3VO4, 10 mM MgCl2) containing a recombinant human p38α MAP kinase (Upstate Biotechnology #14-251) was added to a 384-well plate (5 μL) (6.25 ng protein/well) for fluorescence measurement. After addition of a kinase buffer (5 μL) containing the compound of the present invention, the resulting mixture was incubated at room temperature for 20 minutes. A substrate mixture (5 μL) of biotinylated ATF2 of 5 μg/mL (Upstate Biotechnology #14-432), adenosine triphosphate (90 μmol/L) (Sigma #FL-AAS) and anti-phosphorylated ATF2 antibody (20-fold dilution) (Cell Signaling Technology #9221L) prepared separately was added thereto, and enzyme reaction was carried out at 30° C. for 30 minutes. After the reaction, Hepes buffer (5 μL) containing 0.25% BSA and 100 mM EDTA was added to stop the enzyme reaction. The amount of a complex of the phosphorylated ATF2 and anti-phosphorylated ATF2 antibody produced by the reaction was measured using an Alpha Screen™ Rabbit Detection kit (Packard #6760607).
The p38α MAP kinase inhibitory activity, which is the effect of the compound of the present invention, was calculated as an inhibition rate (%) according to the following equation: Inhibition rate (%)={(AC−AX)/(AC−AB)}×100
wherein AB is a measured value without addition of the enzyme;
AC is a measured value with addition of the enzyme in the absence of a test compound; and
AX is a measured value with addition of the enzyme in the presence of a test compound.
(§1) Inhibition rate of compounds with each concentration was calculated, and a value indicating 50% inhibition (IC50) was determined from the inhibition curve.

[3] = test system: TNF-α production stimulated by lipopolysaccharide (LPS) in THP-1; assay: Inhibitory activity against TNF-α production using human cell lines (LPS-stimulated THP-1); assay type: cell-based; conditions: 1.5 h, THP-1 cells, LPS stimulation, 90 minutes at 37° C., TNF-α by ELISA
Protocol: Inhibitory Activity against TNF-α Production using Human Cell Lines
Using THP-1 which is a human monocytic cell line, the inhibitory effect of the compound of the present invention against TNF-α production stimulated by lipopolysaccharide (LPS) was studied.
Each 50 μL of lipopolysaccharide (LPS; 055:B5, Difco) prepared to a concentration of 40 ng/mL using RPMI-1640 medium containing 10% fetal calf serum (hereinafter abbreviated to RPMI-1640) and RPMI-1640 containing the compound of the present invention was added to a 96-well plate for cell culture. 100 μL of the cell suspension of THP-1 (Dainippon Pharmaceutical Co., Ltd, #06-202) prepared to a cell density of 2×10^6 cells/mL using RPMI-1640 was added and cultured for 90 minutes at 37° C. in an incubator (5% CO2, 95% air). After completion of the reaction, the culture medium supernatant was recovered and the amount of produced TNF-α was measured using an ELISA kit (Invitrogen, #850090192).
The inhibitory activity against TNF-α production, which is the effect of the compound of the present invention, was calculated as an inhibition rate (%) by the following equation: Inhibition rate (%)={(AC−AX)/(AC−AB)}×100
wherein AB is a measured value without LPS induction;
AC is a measured value with LPS induction in the absence of a test compound; and
AX is a measured value with LPS induction in the presence of a test compound.
as §1

T1 sequence (Q16539 whole entry): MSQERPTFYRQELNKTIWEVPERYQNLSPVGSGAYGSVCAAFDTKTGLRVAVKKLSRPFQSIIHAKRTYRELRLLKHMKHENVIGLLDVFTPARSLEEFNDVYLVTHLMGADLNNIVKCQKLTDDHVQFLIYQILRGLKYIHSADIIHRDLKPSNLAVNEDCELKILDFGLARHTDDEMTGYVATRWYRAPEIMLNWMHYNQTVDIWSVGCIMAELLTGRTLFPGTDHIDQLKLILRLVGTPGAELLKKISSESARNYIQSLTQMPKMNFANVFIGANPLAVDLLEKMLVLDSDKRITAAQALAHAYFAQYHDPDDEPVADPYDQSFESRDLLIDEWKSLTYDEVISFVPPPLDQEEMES

Row | Structure (SMILES) | Pospholipid accumulation increasing ratio (% of 30 uM amiodarone) (Dose of compound: 100 uM) [1] | Judgment [1] | IC50 [2] [nM] | IC50 [3] [nM]
1 | C[C@](O)(CO)c1nc(-c2ccc(=O)n(-c3c(F)cccc3F)c2)c(-c2ccc(F)cc2F)o1 [Example 167 (2), 1-(2,6-difluorophenyl)-5-{5-(2,4-difluorophenyl)-2-[(1S)-1,2-dihydroxy-1-methylethyl]-1,3-oxazol-4-yl}-2(1H)-pyridinone] | 18 % of 30 uM amiodarone | Negative | 3.8 | 1.1
2 | CC(C)(O)Cc1nc(-c2ccc(F)cc2F)c(-c2ccc(=O)n(-c3c(F)cccc3F)c2)o1 [Example 220, 1-(2,6-difluorophenyl)-5-[4-(2,4-difluorophenyl)-2-(2-hydroxy-2-methylpropyl)-1,3-oxazol-5-yl]-2(1H)-pyridinone] | 11 % of 30 uM amiodarone | Negative | 8 | 1.4
3 | C[C@@](O)(CO)c1nc(-c2ccc(F)cc2F)c(-c2ccc(=O)n(-c3c(F)cccc3F)c2)o1 [Example 211, 1-(2,6-difluorophenyl)-5-{4-(2,4-difluorophenyl)-2-[(1R)-1,2-dihydroxy-1-methylethyl]-1,3-oxazol-5-yl}-2(1H)-pyridinone] | 8 % of 30 uM amiodarone | Negative | 5.6 | 0.6
4 | CC(C)(O)[C@H](O)c1nc(-c2ccc(F)cc2F)c(-c2ccc(=O)n(-c3c(F)cccc3F)c2)o1 [Example 206, 1-(2,6-difluorophenyl)-5-{4-(2,4-difluorophenyl)-2-[(1S)-1,2-dihydroxy-2-methylpropyl]-1,3-oxazol-5-yl}-2(1H)-pyridinone] | 10 % of 30 uM amiodarone | Negative | 3.3 | 0.9
5 | CC(C)(O)[C@@H](O)c1nc(-c2ccc(=O)n(-c3c(F)cccc3F)c2)c(-c2ccc(F)cc2F)o1 [Example 227 (1), 1-(2,6-difluorophenyl)-5-{5-(2,4-difluorophenyl)-2-[(1R)-1,2-dihydroxy-2-methylpropyl]-1,3-oxazol-4-yl}-2(1H)-pyridinone] | 13 % of 30 uM amiodarone | Negative | 4.8 | 0.7
6 | C[C@@](O)(CO)c1nc(-c2ccc(=O)n(-c3c(F)cccc3F)c2)c(-c2ccc(F)cc2F)o1 [Example 167 (1), 1-(2,6-difluorophenyl)-5-{5-(2,4-difluorophenyl)-2-[(1R)-1,2-dihydroxy-1-methylethyl]-1,3-oxazol-4-yl}-2(1H)-pyridinone] | 3 % of 30 uM amiodarone | Negative | 4.4 | 0.8
7 | CC(C)(O)c1nc(-c2ccc(=O)n(-c3c(F)cccc3F)c2)c(-c2ccc(F)cc2F)o1 [Example 7 (21), 1-(2,6-difluorophenyl)-5-[5-(2,4-difluorophenyl)-2-(1-hydroxy-1-methylethyl)-1,3-oxazol-4-yl]-2(1H)-pyridinone] | 8 % of 30 uM amiodarone | Negative | 3.5 | 1.7
8 | CC(C)(O)[C@@H](O)c1nc(-c2ccc(F)cc2F)c(-c2ccc(=O)n(-c3c(F)cccc3F)c2)o1 [Example 207, 1-(2,6-difluorophenyl)-5-{4-(2,4-difluorophenyl)-2-[(1R)-1,2-dihydroxy-2-methylpropyl]-1,3-oxazol-5-yl}-2(1H)-pyridinone] | 11 % of 30 uM amiodarone | Negative | 3.7 | 0.6
9 | O=c1ccc(-c2nc(C(O)(CO)CO)oc2-c2ccc(F)cc2F)cn1-c1c(F)cccc1F [Example 7 (39), 1-(2,6-difluorophenyl)-5-{5-(2,4-difluorophenyl)-2-[1,2-dihydroxy-1-(hydroxymethyl)ethyl]-1,3-oxazol-4-yl}-2(1H)-pyridinone] | 11 % of 30 uM amiodarone | Negative | 2.8 | 1.8
10 | O=c1ccc(-c2oc(C(O)(CO)CO)nc2-c2ccc(F)cc2F)cn1-c1c(F)cccc1F [Example 223, 1-(2,6-difluorophenyl)-5-{4-(2,4-difluorophenyl)-2-[1,2-dihydroxy-1-(hydroxymethyl)ethyl]-1,3-oxazol-5-yl}-2(1H)-pyridinone] | 12 % of 30 uM amiodarone | Negative | 3.3 | 2.1
11 | CC(C)(O)[C@H](O)c1nc(-c2ccc(=O)n(-c3c(F)cccc3F)c2)c(-c2ccc(F)cc2F)o1 [Example 227, 1-(2,6-difluorophenyl)-5-{5-(2,4-difluorophenyl)-2-[(1S)-1,2-dihydroxy-2-methylpropyl]-1,3-oxazol-4-yl}-2(1H)-pyridinone] | 12 % of 30 uM amiodarone | Negative | 3.9 | 1.7
